From ChEMBL document CHEMBL6120945, “Peptidomimetic Analogues Act as Effective Inhibitors against SARS-CoV-2 by Blocking the Function of Cathepsin L” (J Med Chem, 2024)
Calls of active or inactive are those of the source. The calls are words filed in the database; no cut-off is given here.

Key:
[1] = target: Replicase polyprotein 1ab (Severe acute respiratory syndrome coronavirus 2, UniProt P0DTD1); assay: Inhibition of recombinant SARS-CoV-2 3CLpro using MCA-AVLQSGFR-Lys(Dnp)-Lys-NH2 as substrate incubated for 1.5 hrs by fluorescence based analysis
[2] = Cytotoxicity against african green monkey Vero E6 cells assessed as cell viability incubated for 48 hrs by CCK-8 assay; assay type: toxicity, cell-based, Vero C1008; details: chlorocebus sabaeus
SARS-CoV-2 [3] = assay: microbe, parasite or virus in culture; details: Severe acute respiratory syndrome coronavirus 2, WIV04, Vero C1008
Description: Antiviral activity against SARS-CoV-2 WIV04 infected in African green monkey Vero E6 pre-infected with cells for 1 hr followed by compound treatment and measured after 24 hrs by qRT-PCR analysis

[4] = Inhibition of human recombinant Cathepsin L-like protease using Z-FR-AMC as substrate at 10 uM preincubated for 30 mins followed by substrate addition and measured after 1.5 hrs by […]
[5] = Inhibition of recombinant Cathepsin L-like protease in african green monkey Vero E6 cells incubated for 2 hrs by pull down assay; assay type: cell-based, Chlorocebus aethiops
[6] = Inhibition of human recombinant Cathepsin L-like protease using Z-FR-AMC as substrate preincubated for 30 mins followed by substrate addition and measured after 1.5 hrs by fluorescence based analysis
Vero E6 [7] = assay: Binding affinity to Cathepsin L-like protease in african green monkey Vero E6 cells incubated for 2 hrs by mass spectrometric analysis; assay type: cell-based; details: Chlorocebus aethiops
Vero E6 [8] = assay: Binding affinity to Cathepsin L-like protease in african green monkey Vero E6 cells incubated for 2 hrs by Western blot analysis; assay type: cell-based; details: Chlorocebus aethiops
Homo sapiens [9] = species on record: Homo sapiens; assay: Inhibition of human recombinant Cathepsin L-like protease using Z-FR-AMC as substrate at 1 uM preincubated for 30 mins followed by substrate addition and measured after 1.5 hrs by fluorescence based analysis; details: time 2.0 hrs
SARS-CoV-2 [10] = assay type: functional, organism-based; details: Severe acute respiratory syndrome coronavirus 2; Vero E6; time 12.0 hrs
Trypsin (Homo sapiens) = Trypsin (Homo sapiens) (UniProt P07477+P07478+P35030); assay: Inhibition of human trypsin at 10 uM relative to control; assay type: protein assay
[11] = target: Chymotrypsin (Homo sapiens) (UniProt Q99895+P17538+P40313+Q6GPI1); assay: Inhibition of human Chymotrypsin at 10 uM relative to control; assay type: protein assay
Cathepsin B [12] = target: T1, Cathepsin B (Homo sapiens, UniProt P07858); assay: Inhibition of Cathepsin B (unknown origin) at 10 uM relative to control
[13] = target: T2, Cathepsin L2 (Homo sapiens) (UniProt O60911); assay: Inhibition of Cathepsin V (unknown origin) at 10 uM relative to control
T2 sequence (whole entry): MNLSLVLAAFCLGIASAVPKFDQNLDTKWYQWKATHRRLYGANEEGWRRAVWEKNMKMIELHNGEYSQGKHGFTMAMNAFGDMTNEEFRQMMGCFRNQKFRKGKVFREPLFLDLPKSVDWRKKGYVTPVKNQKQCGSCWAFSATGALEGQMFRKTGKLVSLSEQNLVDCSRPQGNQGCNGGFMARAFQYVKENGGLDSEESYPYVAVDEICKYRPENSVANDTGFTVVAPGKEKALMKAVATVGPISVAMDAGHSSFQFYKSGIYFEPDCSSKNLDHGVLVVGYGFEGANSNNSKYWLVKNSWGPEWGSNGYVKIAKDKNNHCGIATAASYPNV

[14] = target: Replicase polyprotein 1ab (Severe acute respiratory syndrome coronavirus 2) (UniProt P0DTD1); assay: Inhibition of recombinant SARS-CoV-2 3CLpro using MCA-AVLQSGFR-Lys(Dnp)-Lys-NH2 as substrate at 10 uM incubated for 1.5 hrs by fluorescence based analysis
[15] = target: Replicase polyprotein 1ab (Severe acute respiratory syndrome coronavirus 2) (UniProt P0DTD1); assay: Inhibition of SARS-CoV2 PLpro using Z-RLRGG-AMC as substrate at 10 uM preincubated for 30 mins followed by substrate addition and measured after 1.5 hrs by fluorescence based analysis; details: time 2.0 hrs
Homo sapiens [16] = species on record: Homo sapiens; assay: Inhibition of human recombinant Cathepsin L-like protease using Z-FR-AMC as substrate at 10 uM preincubated for 30 mins followed by substrate addition and measured after 1.5 hrs by fluorescence based analysis; details: time 2.0 hrs
[17] = target: Transmembrane protease serine 2 (Homo sapiens) (UniProt O15393); assay: Inhibition of human recombinant TMPRSS2 using Boc-QAR-AMC as substrate at 10 uM preincubated for 30 mins followed by substrate addition and measured after 1.5 hrs by fluorescence based analysis; details: time 2.0 hrs
Sequence of Transmembrane protease serine 2 (Homo sapiens) (O15393 1-255 limits assumed): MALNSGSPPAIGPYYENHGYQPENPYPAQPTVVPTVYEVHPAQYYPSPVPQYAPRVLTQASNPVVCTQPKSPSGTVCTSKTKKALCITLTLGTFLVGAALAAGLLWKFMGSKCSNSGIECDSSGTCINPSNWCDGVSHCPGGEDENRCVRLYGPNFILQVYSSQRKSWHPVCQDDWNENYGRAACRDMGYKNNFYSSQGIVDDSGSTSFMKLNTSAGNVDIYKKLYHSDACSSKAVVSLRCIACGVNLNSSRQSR
Sequence of Transmembrane protease serine 2 (Homo sapiens) (O15393 256-492 limits assumed): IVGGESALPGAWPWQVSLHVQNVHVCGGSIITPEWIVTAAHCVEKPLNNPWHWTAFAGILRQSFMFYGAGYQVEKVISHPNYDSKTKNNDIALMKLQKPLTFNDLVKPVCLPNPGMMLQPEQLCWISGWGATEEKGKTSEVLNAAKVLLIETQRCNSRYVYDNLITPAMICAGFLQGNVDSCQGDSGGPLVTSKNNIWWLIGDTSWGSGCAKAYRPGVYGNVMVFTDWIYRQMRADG

[18] = tested on: Severe acute respiratory syndrome coronavirus 2; assay: Inhibition of recombinant SARS-Cov-2 Cathepsin L-like protease by LC-MS/MS analysis
Vero E6 [19] = assay: Inhibition of Procathepsin L in african green monkey Vero E6 cells by LC-MS/MS analysis; assay type: cell-based; details: Chlorocebus aethiops
[20] = Binding affinity to human recombinant Cathepsin L-like protease using Z-FR-AMC as substrate assessed as inhibition constant preincubated for 30 mins followed by substrate addition and measured after 1 hr by Morrison equation based analysis
Cathepsin B [21] = target: T1, Cathepsin B; assay: Binding affinity to Cathepsin B (unknown origin) assessed as inhibition constant by Morrison equation based analysis
Cathepsin L2 = target: T3, Cathepsin L2 (Homo sapiens, UniProt O60911); assay: Binding affinity to Cathepsin V (unknown origin) assessed as inhibition constant by Morrison equation based analysis
T3 sequence (O60911 whole entry): T2 sequence (whole entry)

[22] = target: Transmembrane protease serine 2 (Homo sapiens) (UniProt O15393); assay: Inhibition of human recombinant TMPRSS2 using Boc-QAR-AMC as substrate at 10 uM preincubated for 30 mins followed by substrate addition and measured after 1.5 hrs by fluorescence based analysis relative to control; details: time 2.0 hrs

| Compound | IC50 [1] | CC50 at 48 h [2] | EC50 (SARS-CoV-2 [3]) | IC50 [4] | IC50 [6] | other results |
| --- | --- | --- | --- | --- | --- | --- |
| COC(=O)[C@H](Cc1ccccc1)NC(=O)[C@H](CC(C)C)NC(=O)/C=C/c1ccccc1 | > 10000 nM | > 100000 nM | > 100000 nM | – | – | – |
| O=C(N[C@@H](Cc1ccccc1)C(=O)N[C@@H](Cc1ccccc1)C(=O)CCl)c1ccc2[nH]ccc2c1 | – | – | – | 0.8 nM | – | – |
| C#CCCCCOc1ccc(/C=C/C(=O)N[C@@H](CC(C)C)C(=O)N[C@H](C=O)Cc2ccccc2)cc1 | – | – | – | – | 40.8 nM | EC50 [5]: 6210 nM; Activity (Vero E6 [7]): Active; Activity (Vero E6 [8]): Active |
| O=C(N[C@@H](Cc1ccc(F)cc1)C(=O)N[C@@H](Cc1ccccc1)C(=O)CCl)c1ccc2[nH]ccc2c1 | – | – | 410 nM | 0.56 nM | – | – |
| CC(C)C[C@@H](NC(=O)/C=C/c1ccccc1)C(=O)N[C@H](C=O)Cc1ccccc1 | > 10000 nM | – | – | – | > 1000 nM | inhibition (Homo sapiens [9]): inactive |
| O=C(N[C@@H](Cc1ccc(F)cc1)C(=O)N[C@@H](Cc1ccccc1)C(=O)CCl)c1cccc2ccccc12 | – | – | 260 nM | 0.27 nM | – | Activity (SARS-CoV-2 [10]): Active; inhibition (Trypsin (Homo sapiens)): inactive; inhibition [11]: inactive; inhibition (Cathepsin B [12]): inactive; inhibition [13]: inactive |
| O=C(N[C@@H](Cc1cccc(F)c1)C(=O)N[C@@H](Cc1ccccc1)C(=O)CCl)c1ccc2[nH]ccc2c1 | – | – | 1750 nM | 0.72 nM | – | – |
| C#CCCCCOc1ccc(/C=C/C(=O)N[C@@H](CC(C)C)C(=O)N[C@@H](Cc2ccccc2)C(=O)OC)cc1 | > 10000 nM | > 100000 nM | > 100000 nM | – | – | – |
| O=C(N[C@@H](Cc1ccccc1)C(=O)N[C@@H](Cc1ccccc1)C(=O)CCl)c1cccc2ccccc12 | – | – | 400 nM | 0.41 nM | – | – |
| CC(C)C[C@H](NC(=O)/C=C/c1ccccc1)C(=O)N[C@H](C=O)C[C@@H]1CCCNC1=O | – | > 100000 nM | 1510 nM | – | – | – |
| CC(C)C[C@H](NC(=O)/C=C/c1ccccc1)C(=O)N[C@H](C=O)Cc1ccccc1 | > 10000 nM | > 100000 nM | 310 nM | – | 22.6 nM | inhibition [14]: inactive; inhibition [15]: inactive; inhibition (Homo sapiens [16]): Active; inhibition [17]: inactive; inhibition [18]: Active; inhibition (Vero E6 [19]): Active; Activity (SARS-CoV-2 [10]): Active; inhibition (Trypsin (Homo sapiens)): inactive; inhibition [11]: inactive; inhibition (Cathepsin B [12]): inactive; inhibition [13]: inactive; Ki [20]: 1.31 nM; Ki (Cathepsin B [21]): 40.1 nM; Ki (Cathepsin L2): 2.25 nM; inhibition [22]: 100% |
| O=C(N[C@@H](Cc1cccc(F)c1)C(=O)N[C@@H](Cc1ccccc1)C(=O)CCl)c1cccc2ccccc12 | – | – | – | 1.34 nM | – | – |
| CC(C)C[C@H](NC(=O)/C=C/c1ccccc1)C(=O)N[C@H](C=O)C[C@@H]1CCNC1=O | – | > 100000 nM | – | – | – | – |
| CCC(=O)[C@H](Cc1ccccc1)NC(=O)[C@H](CC(C)C)NC(=O)/C=C/c1ccccc1 | > 10000 nM | – | – | – | > 1000 nM | – |
| CC(C)C[C@H](NC(=O)/C=C/c1ccccc1)C(=O)N[C@@H](Cc1ccccc1)C(N)=O | > 10000 nM | – | – | – | > 1000 nM | – |
